Results taken from publication PMC12396409, “Screening and hit evaluation of a microbial metabolite library against the pathogenic Plasmodium falciparum and Toxoplasma gondii parasites” (International Journal for Parasitology: Drugs and Drug …, 2025).
Like-named read-outs stand apart in the source and are kept apart here.

Experiments:
[1] = system: P. falciparum 3D7 parasites; assay: P. falciparum growth inhibition assay, 2-cycle (120 h treatment), delayed-death screen and dose-response; assay type: cell-based, Plasmodium falciparum
[2] = system: T. gondii RH strain (RH-Tub-eYFP) tachyzoites; assay: microbe, parasite or virus in culture; assay type: cell-based, Toxoplasma gondii; details: 72 h; for percent parasite growth at 2 µg/mL: Toxoplasma gondii
[3] = system: P. falciparum 3D7 parasites; assay: P. falciparum growth inhibition assay, 1-cycle (72 h treatment), SYBR DNA staining (library screen at 2 μg/mL and dose-response); assay type: cell-based, Plasmodium falciparum
[4] = P. falciparum, 120 h, parasite screen 2 μg/mL, % growth, replicate 1
[5] = P. falciparum, 120 h, parasite screen 2 μg/mL, % growth, replicate 2
[6] = T. gondii, parasite screen 2 μg/mL, % growth, replicate 1
[7] = T. gondii, parasite screen 2 μg/mL, % growth, replicate 2
[8] = P. falciparum, 72 h, parasite screen 2 μg/mL, % growth, replicate 1
[9] = P. falciparum, 72 h, parasite screen 2 μg/mL, % growth, replicate 2
[10] = P. falciparum, 120 h, screen at 2 μg/mL, replicate 1
[11] = P. falciparum, 120 h, screen at 2 μg/mL, replicate 2
[12] = T. gondii, screen at 2 μg/mL, replicate 1
[13] = T. gondii, screen at 2 μg/mL, replicate 2
[14] = P. falciparum, 72 h, screen at 2 μg/mL, replicate 1
[15] = P. falciparum, 72 h, screen at 2 μg/mL, replicate 2

Structure (SMILES): C[C@H]1O[C@@H]2CC(=O)O[C@@H]2C2=C1C(=O)c1c(O)cc3c(c1C2=O)[C@H]1C[C@@H](N(C)C)[C@H](O)[C@]3(C)O1 [Sch 38519]
- Pf_120h_%Growth_Rep1 [1, 4]: 51.02%
- Pf_120h_%Growth_Rep2 [1, 5]: 51.53%
- Tg_72h_%Growth_Rep1 [2, 6]: 50.53%
- Tg_72h_%Growth_Rep2 [2, 7]: 29.49%
- Pf_72h_%Growth_Rep1 [3, 8]: 54.64%
- Pf_72h_%Growth_Rep2 [3, 9]: 23.72%

Structure (SMILES): CC[C@@H](C)/C=C(C)/C=C/C(=O)c1c(O)c(-c2ccc(O)cc2)cn(O)c1=O [Tenellin]
- Pf_120h_%Growth_Rep1 [1, 10]: 76.98%
- Pf_120h_%Growth_Rep2 [1, 11]: 107.08%
- Tg_72h_%Growth_Rep1 [2, 12]: -2.05%
- Tg_72h_%Growth_Rep2 [2, 13]: 1.18%
- Pf_72h_%Growth_Rep1 [3, 14]: 58.91%
- Pf_72h_%Growth_Rep2 [3, 15]: 96.26%

Structure (SMILES): CCCCCCCCCCCCCCCC(=O)C1=C(O)C(CO)OC1=O (stereo not shown) [RK-682]
- Pf_120h_%Growth_Rep1 [1, 4]: 73.75%
- Pf_120h_%Growth_Rep2 [1, 5]: 72.22%
- Tg_72h_%Growth_Rep1 [2, 6]: 107.18%
- Tg_72h_%Growth_Rep2 [2, 7]: 84.15%
- Pf_72h_%Growth_Rep1 [3, 8]: 82.69%
- Pf_72h_%Growth_Rep2 [3, 9]: 35.30%

Structure (SMILES): CCOCCO[C@@H]1CC[C@@H](C[C@@H](C)[C@@H]2CC(=O)[C@H](C)/C=C(\C)[C@@H](O)[C@@H](OC)C(=O)[C@H](C)C[C@H](C)/C=C/C=C/C=C(\C)[C@@H](OC)C[C@@H]3CC[C@@H](C)[C@@](O)(O3)C(=O)C(=O)N3CCCC[C@H]3C(=O)O2)C[C@H]1OC [Umirolimus, reference compound]
- Pf_120h_%Growth_Rep1 [1, 10]: 49.79%
- Pf_120h_%Growth_Rep2 [1, 11]: 32.58%
- Tg_72h_%Growth_Rep1 [2, 12]: 81.37%
- Tg_72h_%Growth_Rep2 [2, 13]: 91.74%
- Mean ([3]; P. falciparum, 72 h, 2 μg/mL, mean of both replicates, growth (% of control)): 22.90
- Pf_72h_%Growth_Rep1 [3, 14]: 19.04%
- Pf_72h_%Growth_Rep2 [3, 15]: 26.75%

Structure (SMILES): Cc1cc(O)cc(=O)o1 [BIA-H1736]
- Pf_120h_%Growth_Rep1 ([1]; P. falciparum 3D7, 120 h, library screen at 2 μg/mL, % growth, replicate 1): 102.52%
- Pf_120h_%Growth_Rep2 ([1]; P. falciparum 3D7, 120 h, library screen at 2 μg/mL, % growth, replicate 2): 94.50%
- Tg_72h_%Growth_Rep1 ([2]; T. gondii RH, library screen at 2 μg/mL, % growth, replicate 1): 113.92%
- Tg_72h_%Growth_Rep2 ([2]; T. gondii RH, library screen at 2 μg/mL, % growth, replicate 2): 93.67%
- Pf_72h_%Growth_Rep1 ([3]; P. falciparum 3D7, 72 h, library screen at 2 μg/mL, % growth, replicate 1): 86.06%
- Pf_72h_%Growth_Rep2 ([3]; P. falciparum 3D7, 72 h, library screen at 2 μg/mL, % growth, replicate 2): 85.31%

Structure (SMILES): C[C@@]12CCC[C@@]34CCC[C@@H](C=C[C@H]1CC3)N42 [Porantherine]
- Pf_120h_%Growth_Rep1 [1, 4]: 101.33%
- Pf_120h_%Growth_Rep2 [1, 5]: 98.35%
- Tg_72h_%Growth_Rep1 [2, 6]: 90.85%
- Tg_72h_%Growth_Rep2 [2, 7]: 74.43%
- Pf_72h_%Growth_Rep1 [3, 8]: 85.43%
- Pf_72h_%Growth_Rep2 [3, 9]: 115.67%

Structure (SMILES): CS(=O)(=O)c1ccc([C@@H](O)[C@@H](CF)NC(=O)C(Cl)Cl)cc1 [Florfenicol, reference compound]
- 3) Fold change (72 h/120 h) [1]: 5.8
- activity at 2 µg/mL ([1]; Plasmodium falciparum, 3D7, 120 h, P. falciparum, 2 μg/mL, 120 h; read-out: 2) Growth (%) at 120 h): 10.8%
- activity at 2 µg/mL ([1]; Plasmodium falciparum, 3D7, 120 h, library screen at 2 μg/mL, 120 h, % growth, replicate 1, read-out: Pf_120h_%Growth_Rep1): 12.9%
- activity at 2 µg/mL ([1]; Plasmodium falciparum, 3D7, 120 h, library screen at 2 μg/mL, 120 h, % growth, replicate 2, read-out: Pf_120h_%Growth_Rep2): 8.65%
- percent parasite growth at 2 µg/mL ([2]; library screen at 2 μg/mL, % growth, replicate 1, read-out: Tg_72h_%Growth_Rep1): 47.1%
- percent parasite growth at 2 µg/mL ([2]; library screen at 2 μg/mL, % growth, replicate 2, read-out: Tg_72h_%Growth_Rep2): 48.9%
- activity at 2 µg/mL ([3]; Plasmodium falciparum, 3D7, 72 h, P. falciparum, 2 μg/mL, 72 h; read-out: 1) Growth (%) at 72 h): 62.4%
- activity at 2 µg/mL ([3]; Plasmodium falciparum, 3D7, 72 h, library screen at 2 μg/mL, 72 h, % growth, replicate 1, read-out: Pf_72h_%Growth_Rep1): 69.7%
- activity at 2 µg/mL ([3]; Plasmodium falciparum, 3D7, 72 h, library screen at 2 μg/mL, 72 h, % growth, replicate 2, read-out: Pf_72h_%Growth_Rep2): 55.2%
